± gives the standard deviation of the averaged measurements.

Compound in one assay: CCCS(=O)(=O)Nc1ccc(F)c(C(=O)c2c[nH]c3ncc(Cl)cc23)c1F [PLX-4720]
Briefly: surviving fraction relative to DMSO-only wells; higher = less growth inhibition. As to conditions: exposure time: 5 days. The gist of the method:
(§1)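 Viability was scored with CellTiter-Glo luminescence and normalised to the median of DMSO-only wells as surviving fraction. Beforehand, log-phase tumour cell lines were seeded at 250–500 cells per well in 384-well plates, allowed 24 hours, and exposed continuously for five days to inhibitors at 0.5, 1, 5, 10, 50, 100, 500 and 1000 nM. Only lines whose three screens gave replicate Pearson r >0.7 and median Z' >0.3 were kept.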

Compound in assay [1]: O=C(NOCC1CC1)c1ccc(F)c(F)c1Nc1ccc(I)cc1Cl
Described as above. As to conditions: exposure time: 5 days. The gist of the method: as §1

On to HMLE3 BREAST, for which the surviving fraction with PLX-4720 (0.5 nM) was found to be 0.225 ± 0.027; with PLX-4720 (1 nM), 0.8523 ± 0.007; with PLX-4720 (5 nM) it was 0.721 ± 0.039; with PLX-4720 (10 nM), 0.851 ± 0.049; in the assay with PLX-4720 (50 nM) it was 0.556 ± 0.041; with PLX-4720 (100 nM) it was 1.03 ± 0.031. For the same test system, the surviving fraction came out at 1.14 ± 0.036 with PLX-4720 (500 nM); 1.15 ± 0.085 with PLX-4720 (1000 nM); 0.845 ± 0.061 in assay [1] (0.5 nM); 0.91 ± 0.028 in assay [1] (1 nM); 0.922 ± 0.053 in assay [1] (5 nM); 0.862 ± 0.017 in assay [1] (10 nM). Besides, the surviving fraction turned out to be 0.733 ± 0.032 in assay [1] (50 nM), 0.745 ± 0.048 in assay [1] (100 nM), 0.525 ± 0.03 in assay [1] (500 nM) and 0.612 ± 0.001 in assay [1] (1000 nM).

As for HMT3552 BREAST, the surviving fraction worked out at 1.04 in the assay with PLX-4720 (0.5 nM); 0.993 with PLX-4720 (1 nM); 1.01 with PLX-4720 (5 nM); 0.978 with PLX-4720 (10 nM); 1.23 with PLX-4720 (50 nM); 1.17 with PLX-4720 (100 nM). In addition, the surviving fraction in the assay with PLX-4720 (500 nM) amounted to 1.11; with PLX-4720 (1000 nM), 1.1; in assay [1] (0.5 nM) it was 1.11; in assay [1] (1 nM) it was 1.12; in assay [1] (5 nM), 1.01; in assay [1] (10 nM) it was 1.08. In addition, the surviving fraction is 1.02 in assay [1] (50 nM), 0.941 in assay [1] (100 nM), 0.92 in assay [1] (500 nM) and 0.843 in assay [1] (1000 nM).

Take HOS BONE: the surviving fraction was 0.92 ± 0.012 with PLX-4720 (0.5 nM); 0.928 ± 0.014 with PLX-4720 (1 nM); 0.935 ± 0.017 in the assay with PLX-4720 (5 nM); 0.964 ± 0.0053 with PLX-4720 (10 nM); 0.992 ± 0.015 in the assay with PLX-4720 (50 nM); 0.995 ± 0.0027 in the assay with PLX-4720 (100 nM). Moreover, the surviving fraction with PLX-4720 (500 nM) was 0.96 ± 0.0078; in the assay with PLX-4720 (1000 nM) it was 1.01 ± 0.019; in assay [1] (0.5 nM) it was 0.996 ± 0.015; in assay [1] (1 nM), 1.01 ± 0.025; in assay [1] (5 nM), 0.997 ± 0.014; in assay [1] (10 nM) it was 1.01 ± 0.033. The surviving fraction in assay [1] (50 nM) is 0.9843 ± 0.006; in assay [1] (100 nM) it was 0.998 ± 0.018; in assay [1] (500 nM), 0.951 ± 0.02; in assay [1] (1000 nM), 0.9593 ± 0.0051.

HOSMNG BONE: the surviving fraction in the assay with PLX-4720 (0.5 nM) is 0.959 ± 0.026; with PLX-4720 (1 nM), 0.962 ± 0.025; with PLX-4720 (5 nM), 1 ± 0.061; in the assay with PLX-4720 (10 nM) it was 0.985 ± 0.041; with PLX-4720 (50 nM), 0.991 ± 0.16; in the assay with PLX-4720 (100 nM), 1.04 ± 0.079. For the same test system, the surviving fraction amounted to 1 ± 0.12 in the assay with PLX-4720 (500 nM); 1.03 ± 0.092 with PLX-4720 (1000 nM); 1 ± 0.092 in assay [1] (0.5 nM); 0.992 ± 0.059 in assay [1] (1 nM); 0.999 ± 0.082 in assay [1] (5 nM); 1.01 ± 0.027 in assay [1] (10 nM). Besides, the surviving fraction in assay [1] (50 nM) worked out at 0.992 ± 0.12; in assay [1] (100 nM) it was 1.02 ± 0.084; in assay [1] (500 nM) it was 0.991 ± 0.1; in assay [1] (1000 nM), 1.06 ± 0.03.

Turning to HS57T BREAST, the surviving fraction is 0.9 ± 0.06 in the assay with PLX-4720 (0.5 nM); 0.898 ± 0.057 with PLX-4720 (1 nM); 0.947 ± 0.069 with PLX-4720 (5 nM); 0.964 ± 0.065 with PLX-4720 (10 nM); 0.921 ± 0.059 in the assay with PLX-4720 (50 nM); 0.982 ± 0.03 with PLX-4720 (100 nM). The surviving fraction is 0.92 ± 0.019 in the assay with PLX-4720 (500 nM); 0.962 ± 0.054 with PLX-4720 (1000 nM); 0.909 ± 0.02 in assay [1] (0.5 nM); 0.945 ± 0.022 in assay [1] (1 nM); 0.933 ± 0.056 in assay [1] (5 nM); 0.965 ± 0.033 in assay [1] (10 nM). Further, the surviving fraction amounted to 0.824 ± 0.025 in assay [1] (50 nM), 0.815 ± 0.013 in assay [1] (100 nM), 0.676 ± 0.021 in assay [1] (500 nM) and 0.686 ± 0.019 in assay [1] (1000 nM).

HS578T BREAST: the surviving fraction in the assay with PLX-4720 (0.5 nM) is 0.925 ± 0.054; with PLX-4720 (1 nM), 0.912 ± 0.021; with PLX-4720 (5 nM) it was 0.908 ± 0.1; in the assay with PLX-4720 (10 nM) it was 0.809 ± 0.16; with PLX-4720 (50 nM), 0.978 ± 0.13; with PLX-4720 (100 nM), 0.92 ± 0.055. The surviving fraction in the assay with PLX-4720 (500 nM) is 0.943 ± 0.058; with PLX-4720 (1000 nM), 0.789 ± 0.11; in assay [1] (0.5 nM), 0.899 ± 0.029; in assay [1] (1 nM) it was 0.913 ± 0.041; in assay [1] (5 nM), 0.917 ± 0.076; in assay [1] (10 nM), 1.09 ± 0.08. Besides, the surviving fraction in assay [1] (50 nM) was determined as 1.05 ± 0.08; in assay [1] (100 nM), 0.892 ± 0.042; in assay [1] (500 nM) it was 0.944 ± 0.041; in assay [1] (1000 nM), 0.936 ± 0.041.

HSSYII SYNOVIAL: the surviving fraction in the assay with PLX-4720 (0.5 nM) is 0.231 ± 0.018; with PLX-4720 (1 nM) it was 0.844 ± 0.038; with PLX-4720 (5 nM), 0.694 ± 0.065; with PLX-4720 (10 nM) it was 0.838 ± 0.03; with PLX-4720 (50 nM), 0.385 ± 0.0033; with PLX-4720 (100 nM), 0.9 ± 0.026. Moreover, the surviving fraction with PLX-4720 (500 nM) is 0.827 ± 0.016; in the assay with PLX-4720 (1000 nM) it was 0.987 ± 0.046; in assay [1] (0.5 nM) it was 0.526 ± 0.017; in assay [1] (1 nM), 0.847 ± 0.035; in assay [1] (5 nM), 0.872 ± 0.041; in assay [1] (10 nM) it was 0.928 ± 0.074. The surviving fraction in assay [1] (50 nM) came to 0.663 ± 0.059; in assay [1] (100 nM) it was 0.807 ± 0.058; in assay [1] (500 nM), 0.82 ± 0.038; in assay [1] (1000 nM) it was 0.821 ± 0.022.

For HT1080 SOFT TISSUE, the surviving fraction is 0.981 ± 0.049 in the assay with PLX-4720 (0.5 nM); 0.994 ± 0.073 with PLX-4720 (1 nM); 0.988 ± 0.025 in the assay with PLX-4720 (5 nM); 0.989 ± 0.031 with PLX-4720 (10 nM); 1.01 ± 0.038 with PLX-4720 (50 nM); 0.979 ± 0.031 with PLX-4720 (100 nM). For the same test system, the surviving fraction was 0.934 ± 0.042 in the assay with PLX-4720 (500 nM); 0.885 ± 0.033 with PLX-4720 (1000 nM); 1.009 ± 0.0071 in assay [1] (0.5 nM); 1.016 ± 0.01 in assay [1] (1 nM); 1.01 ± 0.028 in assay [1] (5 nM); 1.03 ± 0.029 in assay [1] (10 nM). Further, the surviving fraction was 1.08 ± 0.025 in assay [1] (50 nM), 1.04 ± 0.039 in assay [1] (100 nM), 0.741 ± 0.0079 in assay [1] (500 nM) and 0.617 ± 0.036 in assay [1] (1000 nM).

The values are drawn from the supplement of paper PMC6045584.
